Laboratory results: BindingDB's records for doi:10.7270/Q2M32T6M (Vanderbilt Screening Center for GPCRs, Ion Channels and …, 2009)

Target: T1, Solute carrier family 12 member 5 (Homo sapiens, UniProt Q9H2X9)
T1 sequence (Q9H2X9 whole entry): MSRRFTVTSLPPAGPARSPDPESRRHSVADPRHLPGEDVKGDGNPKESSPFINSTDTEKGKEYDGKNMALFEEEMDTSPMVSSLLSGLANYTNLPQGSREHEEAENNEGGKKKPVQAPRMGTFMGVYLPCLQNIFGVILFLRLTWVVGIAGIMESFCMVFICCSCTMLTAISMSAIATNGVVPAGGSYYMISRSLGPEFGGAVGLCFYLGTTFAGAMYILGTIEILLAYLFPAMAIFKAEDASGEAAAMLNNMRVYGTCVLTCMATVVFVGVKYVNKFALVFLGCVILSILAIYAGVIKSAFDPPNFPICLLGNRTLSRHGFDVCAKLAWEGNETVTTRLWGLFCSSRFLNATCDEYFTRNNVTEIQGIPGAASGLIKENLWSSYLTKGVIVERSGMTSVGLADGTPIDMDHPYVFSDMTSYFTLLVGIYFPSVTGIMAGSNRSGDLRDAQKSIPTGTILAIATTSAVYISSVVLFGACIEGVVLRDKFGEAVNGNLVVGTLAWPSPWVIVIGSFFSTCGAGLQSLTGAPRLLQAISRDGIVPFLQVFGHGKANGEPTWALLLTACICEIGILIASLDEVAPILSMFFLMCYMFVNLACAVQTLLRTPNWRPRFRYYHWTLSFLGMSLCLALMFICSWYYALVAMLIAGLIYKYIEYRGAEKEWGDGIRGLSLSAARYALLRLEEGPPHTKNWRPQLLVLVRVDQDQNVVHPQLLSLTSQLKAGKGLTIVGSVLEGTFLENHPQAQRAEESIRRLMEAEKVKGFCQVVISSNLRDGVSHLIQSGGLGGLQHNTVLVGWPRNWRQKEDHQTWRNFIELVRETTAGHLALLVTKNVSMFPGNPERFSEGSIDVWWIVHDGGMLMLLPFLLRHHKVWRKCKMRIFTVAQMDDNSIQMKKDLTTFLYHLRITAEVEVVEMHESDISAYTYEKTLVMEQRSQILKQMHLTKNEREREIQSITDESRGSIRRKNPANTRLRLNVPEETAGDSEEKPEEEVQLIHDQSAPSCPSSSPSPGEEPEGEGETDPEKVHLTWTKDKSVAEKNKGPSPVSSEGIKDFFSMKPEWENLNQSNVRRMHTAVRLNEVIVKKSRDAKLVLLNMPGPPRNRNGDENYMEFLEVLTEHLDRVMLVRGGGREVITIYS
Test: KCC2 modulator potency by thallium flux, dose response, cell-based, HEK293 KCC2, FluoZin-2 fluorescence (AID 1736)
Details: not given

| Structure (SMILES) | EC50 [µM] |
| --- | --- |
| Cn1c(CSc2nc3ccccc3s2)nc2ccccc21 [2-(1-Methyl-1H-benzoimidazol-2-ylmethylsulfanyl)-benzothiazole] | 439 |
| Cc1nc2cc(C(F)(F)F)ccc2n1C1CCN(Cc2nnnn2Cc2ccc3c(c2)OCO3)CC1 [1-[1-(1-Benzo[1,3]dioxol-5-ylmethyl-1H-tetrazol-5-ylmethyl)-piperidin-4-yl]-2-methyl-5-trifluoromethyl-1H-benzoimidazole] | 3.28 |
| Cc1ccc(C(=O)O)cc1-c1ccc(C=C2NC(=O)N(c3ccccc3)C2=O)o1 [3-[5-[(E)-(2,5-dioxo-1-phenylimidazolidin-4-ylidene)methyl]furan-2-yl]-4-methylbenzoic acid] | 10.7 |
| Cc1nn(-c2nc3ccccc3[nH]2)c(N)c1-c1ccccc1 [MLS000063763] | 24.4 |
| COc1ccc(N2C(=S)N=C(Nc3cccc(C)c3)C23CCCCC3)cc1 [1-(4-methoxyphenyl)-4-(3-methylanilino)-1,3-diazaspiro[4.5]dec-3-ene-2-thione] | 14.1 |
| Sc1nnc(Nc2ccccc2)s1 [5-anilino-3H-1,3,4-thiadiazole-2-thione] | 633 |
| O=C(O)CC/C(=C\c1ccc(N2CCCC2)c([N+](=O)[O-])c1)c1nc2ccccc2s1 [(E)-4-(1,3-benzothiazol-2-yl)-5-(3-nitro-4-pyrrolidin-1-yl-phenyl)pent-4-enoic acid] | 233 |
| O=C(CC(C(=O)N1CCc2ccccc21)n1ccnc1)N1CCc2ccccc2C1 (stereo not given) [1-(2,3-dihydroindol-1-yl)-4-(3,4-dihydro-1H-isoquinolin-2-yl)-2-(1-imidazolyl)butane-1,4-dione] | 113 |
| Cc1noc(C)c1S(=O)(=O)N1CCC(C(=O)N2CCN(c3ccc(F)cc3)CC2)CC1 [1-({1-[(3,5-dimethylisoxazol-4-yl)sulfonyl]piperidin-4-yl}carbonyl)-4-(4-fluorophenyl)piperazine] | 23.1 |
| Cc1n[nH]c(O)c1C(c1ccc(-c2ccc(F)cc2)o1)c1c(C)n[nH]c1O [4-[[5-(4-fluorophenyl)furan-2-yl]-(3-methyl-5-oxo-1,2-dihydropyrazol-4-yl)methyl]-5-methyl-1,2-dihydropyrazol-3-one] | 9.41 |
| CCn1c(CCNC(=O)c2cccs2)nnc1SCC(=O)Nc1nc(-c2ccccc2)cs1 [MLS000548611] | 19.1 |
| O=C(OC1CCc2ccccc2C1=O)c1ccccc1O (stereo not given) [MLS000051417] | 26.5 |
| O=C(C=Cc1ccccc1)CC(=O)c1ccccc1O [MLS000627068] | 10 |
| CCc1ccc(OCCNC(=O)c2ccccc2SCc2ccccc2)cc1 [2-(benzylthio)-N-[2-(4-ethylphenoxy)ethyl]benzamide] | 35.2 |
| Oc1ccccc1CN=Nc1nc2ccccc2o1 [(6E)-6-[(1,3-benzoxazol-2-ylhydrazo)methylidene]-1-cyclohexa-2,4-dienone] | 367 |

Results, then the compound that gave them:

| EC50 [µM] | Structure (SMILES) |
| --- | --- |
| 1.74 | Cn1c(C(=O)NCCN2CCN(c3ccccc3F)CC2)cc2c(=O)n(C)c3ccccc3c21 [MLS000118132] |
| 3.68 | Cc1oc(-c2ccccc2)nc1C[S+]([O-])CC(=O)N1CCc2ccccc2C1 (stereo not given) [1-(3,4-dihydro-1H-isoquinolin-2-yl)-2-[(5-methyl-2-phenyl-1,3-oxazol-4-yl)methylsulfinyl]ethanone] |
| 8.92 | O=c1c(-c2cnn(-c3ccccc3)c2)coc2cc(O)ccc12 [7-hydroxy-3-(1-phenyl-1H-pyrazol-4-yl)-4H-chromen-4-one] |
| 0.481 | O=C(COC(=O)c1cc([N+](=O)[O-])ccc1NCc1ccccc1)NC1CCCCC1 [2-(benzylamino)-5-nitro-benzoic acid [2-(cyclohexylamino)-2-keto-ethyl] ester] |
| 0.0458 | O=c1[nH]c2c(s1)C(c1ccccc1)c1c(c(O)n(-c3ccccc3)c1O)S2 (stereo not given) |
| 3.25 | O=C(O)c1cc(-c2ccc(F)cc2F)ccc1O |
| 0.137 | CC1Cc2ccccc2N1C(=O)CSc1nnc(CNc2ccccc2)o1 (stereo not given) [1-(2-Methyl-2,3-dihydro-indol-1-yl)-2-(5-phenylaminomethyl-[1,3,4]oxadiazol-2-ylsulfanyl)-ethanone] |
| 3.54 | CCc1ccc(Nc2nnc(SCC(=O)Nc3sccc3C(N)=O)s2)cc1 [2-[2-[[5-[(4-ethylphenyl)amino]-1,3,4-thiadiazol-2-yl]sulfanyl]ethanoylamino]thiophene-3-carboxamide] |
| 2.68 | Cc1ccc(OCCC(=O)OCC(=O)N2c3ccccc3CC2C)cc1 (stereo not given) [3-(4-methylphenoxy)propanoic acid [2-(2-methyl-2,3-dihydroindol-1-yl)-2-oxoethyl] ester] |
| 2.03 | Cc1ccc(-c2csc(NC(=O)CCNC(=O)c3ccccc3Cl)n2)cc1 [2-chloranyl-N-[3-[[4-(4-methylphenyl)-1,3-thiazol-2-yl]amino]-3-oxidanylidene-propyl]benzamide] |
| 3.24 | COc1cc(C(=S)N2CCOCC2)cc(OC)c1OC(=O)Cc1ccc(F)cc1 [(2,6-dimethoxy-4-morpholin-4-ylcarbothioyl-phenyl) 2-(4-fluorophenyl)ethanoate] |
| 5.55 | COc1cc(OC)c(C2=NOC(C(=O)N3CCc4ccccc4C3)C2)cc1Cl (stereo not given) [2-{[3-(5-chloro-2,4-dimethoxyphenyl)-4,5-dihydro-5-isoxazolyl]carbonyl}-1,2,3,4-tetrahydroisoquinoline] |
| 2.19 | N#Cc1nc(Cc2cccc3ccccc23)oc1N1CCOCC1 [5-(4-morpholinyl)-2-(1-naphthalenylmethyl)-4-oxazolecarbonitrile] |
| 1.68 | O=C(CSc1ccc(-c2cccs2)nn1)Nc1ccccc1F [MLS000621184] |
| 5.25 | CCOC(=O)c1c(C)[nH]c(N=Nc2ccccc2)c1C [(5Z)-2,4-dimethyl-5-(phenylhydrazinylidene)-3-pyrrolecarboxylic acid ethyl ester] |
| 1.65 | O=C(Cn1cnc2c(nnn2Cc2ccc(F)cc2)c1=O)N1CCN(c2ccccc2)CC1 [3-(4-fluorobenzyl)-6-[2-keto-2-(4-phenylpiperazino)ethyl]triazolo[4,5-d]pyrimidin-7-one] |
| 3.74 | CS(=O)(=O)N(CC(=O)N1CCN(c2ccccc2)CC1)c1cccc(Br)c1 [MLS000110474] |
| 2.21 | CC(C)N1C(=O)S/C(=C/c2ccccc2OCc2ccc(C(=O)O)cc2)C1=O |
| 9.24 | Fc1cccc(F)c1C=NNC(=S)Nc1cccnc1 [1-[(2,6-difluorobenzylidene)amino]-3-(3-pyridyl)thiourea] |
| 0.384 | CN(Cc1ccccc1)S(=O)(=O)c1ccc(Cl)c(C(=O)NCCc2ccccn2)c1 [2-chloranyl-5-[methyl-(phenylmethyl)sulfamoyl]-N-(2-pyridin-2-ylethyl)benzamide] |
| 6.74 | c1ccc(-c2nnc(Sc3ncnc4c3cnn4-c3ccccc3)[nH]2)cc1 [SMR000019566] |
| 4.28 | Cc1cccc(Nc2nnc(SCC(=O)c3ccc(Br)s3)s2)c1C [1-(5-bromanylthiophen-2-yl)-2-[[5-[(2,3-dimethylphenyl)amino]-1,3,4-thiadiazol-2-yl]sulfanyl]ethanone] |
| 9.4 | N#Cc1nc(Cc2cccc3ccccc23)oc1NCCN1CCOCC1 [5-(2-Morpholin-4-yl-ethylamino)-2-naphthalen-1-ylmethyl-oxazole-4-carbonitrile] |
| 0.642 | COc1ccc(-c2cc(CCCC(=O)NCCc3ccccc3)no2)cc1 [4-[5-(4-methoxyphenyl)-1,2-oxazol-3-yl]-N-(2-phenylethyl)butanamide] |
| 0.632 | CC1Cc2ccccc2N1C(=O)c1ccc(N2CCCCC2)c([N+](=O)[O-])c1 (stereo not given) [(2-methyl-2,3-dihydroindol-1-yl)-(3-nitro-4-piperidin-1-yl-phenyl)methanone] |

Same assay, conditions: inactive by the depositor's call

| EC50 [µM] | Structure (SMILES) |
| --- | --- |
| 1.97 | S=C(Nc1ccccn1)Nc1ccccc1Cl [1-(2-chlorophenyl)-3-(2-pyridinyl)thiourea] |
| 1070 | CCc1ccc(OCC(=O)NNC(=O)CSc2ncnc3sc(C)c(C)c23)cc1 [(4-Ethyl-phenoxy)-acetic acid N'-[2-(5,6-dimethyl-thieno[2,3-d]pyrimidin-4-ylsulfanyl)-acetyl]-hydrazide] |
| 459 | O=C(COc1ccc2ccccc2c1Br)Nn1cnnc1 [2-(1-bromanylnaphthalen-2-yl)oxy-N-(1,2,4-triazol-4-yl)ethanamide] |
| 24.9 | CCOC(=S)N=C(NS(=O)(=O)c1ccc(C)cc1)c1ccccc1 [MLS000579749] |
| 51.8 | CCc1ccc(-n2c(SCC(=O)c3ccc4c(c3)NC(=O)CO4)nc3ccccc3c2=O)cc1 [6-[2-[3-(4-ethylphenyl)-4-oxidanylidene-quinazolin-2-yl]sulfanylethanoyl]-4H-1,4-benzoxazin-3-one] |
